SMILES strings stand for the structures. Structures can show the parent of a compound that is named as a salt.

The subject of one assay is HCT116. The assay is described as follows: MTT assay, HCT116. Format: cell-based, human. As to conditions: colorectal adenocarcinoma, 48 h incubation. On the procedure:
(§1) The human cancer cell lines HeLa (cervical adenocarcinoma), HCT116 (colorectal adenocarcinoma), A2780 (human ovarian adenocarcinoma), A2780cis (human ovarian adenocarcinoma cisplatin-resistant), Jurkat (acute T-lymphoblastic leukemia), and Hep G2 (hepatocellular carcinoma) were cultured in an RPMI 1640 growth medium (Biosera, Kansas City, MO, USA). The cancer cell lines MDA-MB-231 (triple-negative breast adenocarcinoma), A2058 (human melanoma), U87 (human glioblastoma), PATU 8902 (pancreas adenocarcinoma), and A549 (human lung adenocarcinoma) were cultured in a DMEM medium (Biosera, Kansas City, MO, USA). The media were supplemented with 10% fetal bovine serum (FBS) (Invitrogen, Carlsbad, CA, USA) and 1× HyClone™ Antibiotic/Antimycotic Solution (GE Healthcare, Piscataway, NJ, USA).
(§2) To evaluate the IC50 (half-maximal inhibitory concentration) and confirm the antiproliferative activity of the tested substances, we employed the colorimetric MTT assay (3-(4,5-dimethylthiazol-2-yl)-2,5-diphenyltetrazolium bromide) (Sigma-Aldrich Chemie, Steinheim, Germany). The cell lines were seeded in 96-well plates at a density of 5 × 10^3 to 10 × 10^3 cells per well. After 24 h, the tested substances, dissolved in the cultivation medium, were added to the cells at final concentrations of 5, 10, 20, and 50 µmol/L. The cells were then incubated for 48 h under standard cultivation conditions. Following the incubation period, MTT was added to each well. The MTT was metabolized by the cells into insoluble formazan crystals, which were subsequently dissolved by adding 100 µL of 10% SDS. After another 24 h, the absorbance was measured at a wavelength of 540 nm using the automated Cytation™ 3 Cell Imaging Multi-Mode Reader (Biotek, Winooski, VT, USA). The experiments were performed in at least three independent repetitions. IC50 values were calculated using a nonlinear regression method.

A further assay relates to A2058. As to the kind of experiment: MTT assay, A2058. The assay is classed as cell-based. The following applies: human melanoma, 48 h incubation. On the procedure:
as §1, §2

The test system of a further assay is Hep G2. The assay is described as follows: MTT assay, Hep G2. The assay is classed as cell-based, human. The following applies: hepatocellular carcinoma, 48 h incubation. On the procedure:
as §1, §2

For a further assay, the system named is MCF-10A. The assay is described as follows: MTT assay, MCF-10A non-cancerous cells. Format: cell-based, human. As to conditions: non-cancerous epithelial breast cells, 48 h incubation. On the procedure:
(§3) The non-cancerous cell line MCF-10A (human epithelial breast cells) was cultured in a DMEM F12 medium supplemented with 10% FBS (Invitrogen, Carlsbad, CA, USA), 1× HyClone™ Antibiotic/Antimycotic Solution (GE Healthcare, Piscataway, NJ, USA), insulin, hEGF, and hydrocortisone. The BJ-5ta cells (human dermal fibroblasts) were cultured in a DMEM-M199 4:1 medium mixture, supplemented with 10% FBS and hygromycin B (0.01 mg/mL). The cells were maintained under standard conditions with an atmosphere containing 5% CO2 at 37 °C. Cell viability, estimated by trypan blue exclusion, was consistently greater than 95% before each experiment.
as §2

The test system of a further assay is A2780. As to the kind of experiment: MTT assay, A2780. As to conditions: ovarian adenocarcinoma, 48 h incubation. Format: cell-based, human. On the procedure: as §1, §2
In another assay the test system is PATU. As to the kind of experiment: MTT assay, PATU 8902. The assay is classed as cell-based, human. The following applies: pancreas adenocarcinoma, 48 h incubation. On the procedure:
as §1, §2

A further assay concerns Bj-5ta. The assay is described as follows: MTT assay, BJ-5ta non-cancerous fibroblasts. The following applies: non-cancerous dermal fibroblasts, 48 h incubation. The assay is classed as cell-based, human. The procedure:
as §3, §2

A further assay has as its system A549. The assay is described as follows: MTT assay, A549. The assay is classed as cell-based, human. The following applies: lung adenocarcinoma, 48 h incubation. The procedure:
as §1, §2

In the next assay the test system is HeLa. As to the kind of experiment: MTT assay, HeLa. Format: cell-based, human. As to conditions: cervical adenocarcinoma, 48 h incubation. The procedure:
as §1, §2

`COc1cc(NC(=O)COc2ccc(/C=C3\SC(=O)N(Cc4c5ccccc5nc5ccccc45)C3=O)cc2)cc(OC)c1OC` [7c·2HCl, 2-(4-{[(5Z)-3-[(Acridin-9-yl)methyl]-2,4-dioxo-1,3-thiazolidin-5-ylidene]methyl}phenoxy)-N-(3,4,5-trimethoxyphenyl)acetamide dihydrochloride]: the half-maximal inhibitory concentration (IC50) was 16.9 ± 1.75 µM in the assay on HCT116; > 50 µM with A2058; > 50 µM in the assay on Hep G2; > 50 µM in the assay with MCF-10A; > 50 µM in the assay with A2780; > 50 µM with PATU. Further, the figures for the 50% inhibitory concentration (IC50) in the assay on Bj-5ta, with A549 and in the assay on HeLa were > 50 µM, > 50 µM and 21.4 ± 5.8 µM, respectively.
On to `O=C(COc1ccc(/C=C2\SC(=O)N(Cc3c4ccccc4nc4ccccc34)C2=O)cc1)Nc1ccc([N+](=O)[O-])cc1` [7d·2HCl, 2-(4-{[(5Z)-3-[(Acridin-9-yl)methyl]-2,4-dioxo-1,3-thiazolidin-5-ylidene]methyl}phenoxy)-N-(4-nitrophenyl)acetamide dihydrochloride], for which the IC50 in the assay on HCT116 is 8.6 ± 2.9 µM; in the assay on A2058 it was > 50 µM; in the assay on Hep G2 it was > 50 µM; in the assay with MCF-10A it was > 50 µM; in the assay on A2780, > 50 µM; in the assay with PATU it was > 50 µM. Also, the figures for the IC50 in the assay with Bj-5ta, in the assay with A549 and in the assay on HeLa were > 50 µM, > 50 µM and 4.55 ± 0.35 µM, respectively.
As to `O=C(COc1ccc(/C=C2\SC(=O)N(Cc3c4ccccc4nc4ccccc34)C2=O)cc1)Nc1cccc(C(F)(F)F)c1` [7f·2HCl, 2-(4-{[(5Z)-3-[(Acridin-9-yl)methyl]-2,4-dioxo-1,3-thiazolidin-5-ylidene]methyl}phenoxy)-N-[3-(trifluoromethyl)phenyl]acetamide dihydrochloride], the concentration for half-maximal inhibition (IC50) in the assay with HCT116 is 15.2 ± 3.4 µM; in the assay on A2058, > 50 µM; in the assay on Hep G2, 27.4 ± 5.9 µM; in the assay with MCF-10A, 7.7 ± 1.5 µM; in the assay on A2780, > 50 µM; in the assay on PATU, 9.82 ± 1.92 µM. Further, the figures for the IC50 in the assay with Bj-5ta, in the assay with A549 and with HeLa were 39.5 ± 6.5 µM, 34 ± 6.05 µM and 6.9 ± 0.2 µM, respectively.
Turning to `O=C(COc1ccc(/C=C2\SC(=O)N(Cc3c4ccccc4nc4ccccc34)C2=O)cc1)Nc1cc(C(F)(F)F)cc(C(F)(F)F)c1` [7g·2HCl, 2-(4-{[(5Z)-3-[(Acridin-9-yl)methyl]-2,4-dioxo-1,3-thiazolidin-5-ylidene]methyl}phenoxy)-N-[3,5-bis(trifluoromethyl)phenyl]acetamide dihydrochloride], the IC50 in the assay on HCT116 is > 50 µM; with A2058, > 50 µM; with Hep G2, > 50 µM; in the assay on MCF-10A, 13.2 ± 3.2 µM; in the assay on A2780, > 50 µM; in the assay with PATU, > 50 µM. Besides, the values for the half-maximal inhibitory concentration (IC50) in the assay with Bj-5ta, in the assay with A549 and in the assay with HeLa were > 50 µM, 32.4 ± 7.6 µM and 19.3 ± 4.6 µM, respectively.
Regarding `COc1cc(NC(=O)COc2ccc(/C=C3\SC(=O)N(Cc4cccc5cc6ccccc6nc45)C3=O)cc2)cc(OC)c1` [8b·HCl, 2-(4-{[(5Z)-3-[(Acridin-4-yl)methyl]-2,4-dioxo-1,3-thiazolidin-5-ylidene]methyl}phenoxy)-N-(3,5-dimethoxyphenyl)acetamide hydrochloride], the IC50 in the assay on HCT116 was 32.4 ± 6.3 µM; with A2058, > 50 µM; with Hep G2 it was > 50 µM; in the assay with MCF-10A it was > 50 µM; in the assay with A2780, > 50 µM; in the assay with PATU it was > 50 µM. Further, the IC50 is > 50 µM in the assay with Bj-5ta, > 50 µM in the assay on A549 and 47.9 ± 1.4 µM with HeLa.
For `COc1cc(NC(=O)COc2ccc(/C=C3\SC(=O)N(Cc4c5ccccc5nc5ccccc45)C3=O)cc2OC)cc(OC)c1` [12b·2HCl, 2-(4-{[(5Z)-3-[(Acridin-9-yl)methyl]-2,4-dioxo-1,3-thiazolidin-5-ylidene]methyl}-2-methoxyphenoxy)-N-(3,5-dimethoxyphenyl)acetamide dihydrochloride], the IC50 with HCT116 was 27.3 ± 3.75 µM; in the assay on A2058 it was > 50 µM; in the assay with Hep G2 it was > 50 µM; in the assay with MCF-10A, 12.4 ± 1.9 µM; in the assay on A2780 it was 15 ± 1.4 µM; with PATU, > 50 µM. Further, the figures for the IC50 with Bj-5ta, in the assay on A549 and in the assay with HeLa were 29.6 ± 4.4 µM, > 50 µM and 11.9 ± 7.4 µM, respectively.
Take `COc1cc(/C=C2\SC(=O)N(Cc3c4ccccc4nc4ccccc34)C2=O)ccc1OCC(=O)Nc1cc(OC)c(OC)c(OC)c1` [12c·2HCl, 2-(4-{[(5Z)-3-[(Acridin-9-yl)methyl]-2,4-dioxo-1,3-thiazolidin-5-ylidene]methyl}-2-methoxyphenoxy)-N-(3,4,5-trimethoxyphenyl)acetamide dihydrochloride]: the IC50 was 5.4 ± 2.4 µM with HCT116; > 50 µM in the assay on A2058; > 50 µM in the assay with Hep G2; > 50 µM in the assay on MCF-10A; > 50 µM in the assay on A2780; > 50 µM in the assay with PATU. Further, the results for the IC50 in the assay on Bj-5ta, with A549 and in the assay with HeLa were > 50 µM, > 50 µM and 20.2 ± 5.4 µM, respectively.
`COc1cc(/C=C2\SC(=O)N(Cc3c4ccccc4nc4ccccc34)C2=O)ccc1OCC(=O)Nc1ccccc1C(F)(F)F` [12e·2HCl, 2-(4-{[(5Z)-3-[(Acridin-9-yl)methyl]-2,4-dioxo-1,3-thiazolidin-5-ylidene]methyl}-2-methoxyphenoxy)-N-[2-(trifluoromethyl)phenyl]acetamide dihydrochloride]: the IC50 in the assay on HCT116 was 29.2 ± 3.7 µM; in the assay on A2058, > 50 µM; with Hep G2, > 50 µM; in the assay with MCF-10A it was > 50 µM; in the assay on A2780 it was > 50 µM; in the assay on PATU it was > 50 µM. In addition, the IC50 was > 50 µM with Bj-5ta, > 50 µM with A549 and 13.2 ± 4.9 µM with HeLa.
Regarding `COc1cc(/C=C2\SC(=O)N(Cc3c4ccccc4nc4ccccc34)C2=O)ccc1OCC(=O)Nc1cccc(C(F)(F)F)c1` [12f·2HCl, 2-(4-{[(5Z)-3-[(Acridin-9-yl)methyl]-2,4-dioxo-1,3-thiazolidin-5-ylidene]methyl}-2-methoxyphenoxy)-N-[3-(trifluoromethyl)phenyl]acetamide dihydrochloride], the half-maximal inhibitory concentration (IC50) with HCT116 was 4.98 ± 2.9 µM; with A2058 it was > 50 µM; in the assay on Hep G2, > 50 µM; in the assay with MCF-10A it was > 50 µM; in the assay on A2780, > 50 µM; with PATU, > 50 µM. The IC50 is > 50 µM with Bj-5ta, > 50 µM with A549 and 19.4 ± 6.48 µM in the assay with HeLa.
As for `COc1cc(/C=C2\SC(=O)N(Cc3c4ccccc4nc4ccccc34)C2=O)ccc1OCC(=O)Nc1cc(C(F)(F)F)cc(C(F)(F)F)c1` [12g·2HCl, 2-(4-{[(5Z)-3-[(Acridin-9-yl)methyl]-2,4-dioxo-1,3-thiazolidin-5-ylidene]methyl}-2-methoxyphenoxy)-N-[3,5-bis(trifluoromethyl)phenyl]acetamide dihydrochloride], the IC50 in the assay with HCT116 was 26.7 ± 9.01 µM; with A2058, > 50 µM; in the assay on Hep G2, > 50 µM; in the assay with MCF-10A, > 50 µM; in the assay on A2780, > 50 µM; in the assay with PATU it was > 50 µM. Besides, the IC50 is > 50 µM in the assay with Bj-5ta, > 50 µM with A549 and 25.1 ± 6.4 µM with HeLa.
Take `COc1cc(/C=C2\SC(=O)N(Cc3c4ccccc4nc4ccccc34)C2=O)ccc1OCC(=O)Nc1ccccc1` [Compound 12a·2HCl, 2-(4-{[(5Z)-3-[(Acridin-9-yl)methyl]-2,4-dioxo-1,3-thiazolidin-5-ylidene]methyl}-2-methoxyphenoxy)-N-phenylacetamide dihydrochloride]: the IC50 with HCT116 was 6.55 ± 1.65 µM; with A2058 it was > 50 µM; in the assay on Hep G2 it was > 50 µM; in the assay with MCF-10A it was 19.3 ± 1.1 µM; with A2780, 15 ± 1.35 µM; in the assay with PATU, > 50 µM. The IC50 in the assay on Bj-5ta is 35.5 ± 4.5 µM; with A549, > 50 µM; in the assay with HeLa, 18.2 ± 5.1 µM.

Source of the values: publication PMC11280325, “Design, Synthesis, and Characterization of Novel Thiazolidine-2,4-Dione-Acridine Hybrids as Antitumor Agents” (Molecules, 2024).
